The results in this text go back to ChEMBL document CHEMBL5543126, “Combinatorial Ubiquitination REal-time PROteolysis (CURE-PROs): A Modular Platform for Generating Reversible, Self-Assembling Bifunctional Targeted Degraders” (J Med Chem, 2024).

SMILES strings stand for the structures.

Series [1] deals with T1, von Hippel-Lindau disease tumor suppressor/Bromodomain-containing protein 4 (Homo sapiens, UniProt O60885+P40337). Put plainly: PROTAC activity at VHL/BRD4 in human MCF7 cells assessed as induction of BRD4 degradation at 10 uM measured at 4 hrs in presence of VHL based ligand (2S,4R)-1-((S)-2-(2,3-dihydroxybenzamido)-3,3-dimethylbutanoyl)-4-hydroxy-N-(4-(4-methylthiazol-5-yl)benzyl)pyrrolidine-2-carboxamide by Western blot based Combinatorial Ubiquitination Real-time PROteolysis analysis. The series is classed as cell-based.

The target in series [2] is T1, von Hippel-Lindau disease tumor suppressor/Bromodomain-containing protein 4. In words: PROTAC activity at BRD4/VHL in human MCF7 cells assessed as induction of BRD4 degradation by measuring residual activity at 10 uM incubated for 24 hrs by Western blot analysis. Format: cell-based. Background: A western blot detects proteins with antibodies after separation by electrophoresis.

For series [3] the target is unchanged. Put plainly: PROTAC activity at VHL/BRD4 in HEK293 cells assessed as induction of BRD4 degradation by measuring degradation rate at 3 uM measured every 15 mins for 24 hrs in presence of VHL based ligand (2S,4R)-1-((S)-2-(2,3-dihydroxybenzamido)-3,3-dimethylbutanoyl)-4-hydroxy-N-(4-(4-methylthiazol-5-yl)benzyl)pyrrolidine-2-carboxamide by HiBiT based Combinatorial Ubiquitination Real-time PROteolysis analysis. Format: cell-based. (In general: The HiBiT peptide binds its large partner to form an active luciferase.)

The target is the same in series [4]. In words: PROTAC activity at BRD4/VHL in human MCF7 cells assessed as induction of BRD4 degradation by measuring residual activity at 300 nM incubated for 24 hrs by Western blot analysis. Format: cell-based.
A short description of series [5]: Metabolic stability in human liver microsome assessed as half life at 1 uM measured upto 60 mins by LC-MS/MS analysis. Conditions: liver microsomes. The series is classed as ADME.
The target in series [6] is T1, von Hippel-Lindau disease tumor suppressor/Bromodomain-containing protein 4. Put plainly: PROTAC activity at BRD4/VHL in human MCF7 cells assessed as induction of BRD4 degradation by measuring residual activity at 100 nM incubated for 24 hrs by Western blot analysis. The series is classed as cell-based.
Series [7] is described as follows: Metabolic stability in C57BL/6 mouse liver microsome at 1 uM measured upto 60 mins in presence of NADPH/UDPGA by LC-MS/MS analysis. Format: ADME, microsomes. For orientation: Liver microsomes are a subcellular fraction often used to study metabolism.
Series [8] deals with T1, von Hippel-Lindau disease tumor suppressor/Bromodomain-containing protein 4. Put plainly: PROTAC activity at BRD4/VHL in human MCF7 cells assessed as induction of BRD4 degradation by measuring residual activity at 1 uM incubated for 24 hrs by Western blot analysis. The series is classed as cell-based.
The nature of series [9]: Metabolic stability in human liver microsome at 1 uM measured upto 60 mins in presence of NADPH/UDPGA by LC-MS/MS analysis. The settings on record: liver microsomes, read-out: Stability. Format: ADME.
Series [10] concerns the target T1, von Hippel-Lindau disease tumor suppressor/Bromodomain-containing protein 4. In words: PROTAC activity at BRD4/VHL in human MCF7 cells assessed as induction of BRD4 degradation by measuring residual activity at 30 nM incubated for 24 hrs by Western blot analysis. Format: cell-based.
Series [11] shares this target. In words: PROTAC activity at BRD4/VHL in human MCF7 cells assessed as induction of BRD4 degradation by measuring residual activity at 30 nM incubated for 24 hrs in presence of VHL based ligand (2S,4R)-1-((S)-2-(2,3-dihydroxybenzamido)-3,3-dimethylbutanoyl)-4-hydroxy-N-(4-(4-methylthiazol-5-yl)benzyl)pyrrolidine-2-carboxamide by Western blot based Combinatorial Ubiquitination Real-time PROteolysis analysis. Format: cell-based.

Series [12] can be described thus: Cmax in C57BL/6 mouse at 10 mg/kg, ip measured upto 24 hrs by LC-MS/MS analysis. The series is classed as ADME, organism-based. Conditions: in vivo.
Series [13] has as its target T1, von Hippel-Lindau disease tumor suppressor/Bromodomain-containing protein 4. In words: PROTAC activity at BRD4/VHL in human MCF7 cells assessed as induction of BRD4 degradation by measuring residual activity at 3 uM incubated for 24 hrs by Western blot analysis. The series is classed as cell-based.
The nature of series [14]: Metabolic stability in human liver microsome at 1 uM measured upto 60 mins in absence of NADPH/UDPGA by LC-MS/MS analysis. The series is classed as ADME. The settings on record: liver microsomes, read-out: Stability.
Series [15] can be described thus: Tmax in C57BL/6 mouse at 10 mg/kg, ip measured upto 24 hrs by LC-MS/MS analysis. Format: ADME, organism-based. The settings on record: in vivo.
Series [16] is described as follows: AUClast in C57BL/6 mouse at 10 mg/kg, ip measured upto 24 hrs by LC-MS/MS analysis. Conditions: in vivo. The series is classed as ADME, organism-based.
Series [17] is described as follows: Metabolic stability in C57BL/6 mouse liver microsome at 1 uM measured upto 60 mins in absence of NADPH/UDPGA by LC-MS/MS analysis. Format: ADME. Conditions: liver microsomes, read-out: Stability.
Series [18] can be described thus: Metabolic stability in C57BL/6 mouse liver microsome assessed as half life at 1 uM measured upto 60 mins by LC-MS/MS analysis. Format: ADME, microsomes.
Series [19] is described as follows: Half life in C57BL/6 mouse at 10 mg/kg, ip measured upto 24 hrs by LC-MS/MS analysis. Format: ADME, organism-based. The settings on record: in vivo.
Series [20] deals with T1, von Hippel-Lindau disease tumor suppressor/Bromodomain-containing protein 4. Put plainly: PROTAC activity at BRD4/VHL in human MCF7 cells assessed as induction of BRD4 degradation by measuring residual activity at 1 uM incubated for 24 hrs in presence of 1 uM BRD4 based ligand ((4S)-6-(4-chlorophenyl)-4-(2-(ethylamino)-2-oxoethyl)-1-methyl4Hbenzo[f][1,2,4]triazolo [4,3-a][1,4]diazepin-8-yl)boronic acid by Western blot based Combinatorial Ubiquitination Real-time PROteolysis analysis. The series is classed as cell-based.

Series [21] has the same target. Put plainly: PROTAC activity at BRD4/VHL in human MCF7 cells assessed as induction of BRD4 degradation by measuring residual activity at 30 nM incubated for 24 hrs in presence of 1 uM BRD4 based ligand ((4S)-6-(4-chlorophenyl)-4-(2-(ethylamino)-2-oxoethyl)-1-methyl4Hbenzo[f][1,2,4]triazolo [4,3-a][1,4]diazepin-8-yl)boronic acid by Western blot based Combinatorial Ubiquitination Real-time PROteolysis analysis. The series is classed as cell-based.

Series [22] shares this target. In words: PROTAC activity at BRD4/VHL in human MCF7 cells assessed as induction of BRD4 degradation by measuring residual activity at 3 uM incubated for 24 hrs in presence of 300 nM BRD4 based ligand ((4S)-6-(4-chlorophenyl)-4-(2-(ethylamino)-2-oxoethyl)-1-methyl4Hbenzo[f][1,2,4]triazolo [4,3-a][1,4]diazepin-8-yl)boronic acid by Western blot based Combinatorial Ubiquitination Real-time PROteolysis analysis. The series is classed as cell-based.

The target is the same in series [23]. In words: PROTAC activity at VHL/BRD4 in HEK293 cells assessed as induction of BRD4 degradation by measuring Tmax at 0.3 uM measured every 15 mins for 24 hrs in presence of BRD4 based ligand ((4S)-6-(4-chlorophenyl)-4-(2-(ethylamino)-2-oxoethyl)-1-methyl4Hbenzo[f][1,2,4]triazolo [4,3-a][1,4]diazepin-8-yl)boronic acid by HiBiT based Combinatorial Ubiquitination Real-time PROteolysis analysis. Format: cell-based.

For series [24] the target is unchanged. In words: PROTAC activity at BRD4/VHL in human MCF7 cells assessed as induction of BRD4 degradation by measuring residual activity at 1 uM incubated for 24 hrs in presence of 3 uM BRD4 based ligand ((4S)-6-(4-chlorophenyl)-4-(2-(ethylamino)-2-oxoethyl)-1-methyl4Hbenzo[f][1,2,4]triazolo [4,3-a][1,4]diazepin-8-yl)boronic acid by Western blot based Combinatorial Ubiquitination Real-time PROteolysis analysis. The series is classed as cell-based.

T1 sequence (P40337 whole entry, looked up, other chains not shown): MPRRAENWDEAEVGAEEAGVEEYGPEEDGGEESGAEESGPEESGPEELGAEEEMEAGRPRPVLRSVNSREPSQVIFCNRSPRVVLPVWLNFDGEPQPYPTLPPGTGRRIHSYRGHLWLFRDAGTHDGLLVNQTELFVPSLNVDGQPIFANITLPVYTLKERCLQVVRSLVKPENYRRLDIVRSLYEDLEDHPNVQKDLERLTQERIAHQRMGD

In the case of `CCNC(=O)C[C@@H]1N=C(c2ccc(Cl)cc2)c2cc(B(O)O)ccc2-n2c(C)nnc21`, the Activity in series [1] was 100%; in [2] it was 68%; in [3], 0.908 h⁻¹; in series [4], 147%; in [6], 121%; in series [8] it was 91%. Besides, the results for the Activity in series [10], in series [11] and in [13] were 116%, 91% and 71%, respectively. Further, the half-life at 1 µM in series [5] was more than 1 h. In addition, the Stability in series [7] (mouse, microsomes, 1 h, 1 µM) is given as 112%. The remaining at 1 h, 1 µM turned out to be 107% in series [9], 101% in series [14] and 100% in series [17]. In series [12], this compound gave a Cmax of 1480 ng/mL. Further, the Tmax in series [15] was found to be 0.5 h. Further, the AUC(0-t) at 24 h in series [16] was 1860 ng·h/mL. The t1/2 in series [18] (mouse, microsomes, 1 h, 1 µM) was 0.483 h. This compound had a half-life in series [19] of 6.3 h.

Turning to `Cc1ncsc1-c1ccc(CNC(=O)[C@@H]2C[C@@H](O)CN2C(=O)[C@@H](NC(=O)c2cccc(O)c2O)C(C)(C)C)cc1`, the Activity in [2] was found to be 95%; in series [4] it was 86%; in series [20], 35%; in series [21], 96%; in series [6], 108%; in series [22], 39%. In addition, the Activity was 92% in series [8], 102% in [10], 113% in [13] and 22% in series [24]. For the same compound, the half-life at 1 µM in [5] is more than 1 h; in [18] (C57BL/6, mouse, liver microsomes), more than 1 h. Also, the remaining at 1 h, 1 µM came out at 24% in [7] (C57BL/6, mouse, liver microsomes, read-out: Stability); 73% in series [9]; 87% in [14]; 83% in series [17]. For the same compound, the Cmax in series [12] is 1570 ng/mL. Also, the Tmax was determined as 7.75 h in [23] and 0.5 h in series [15]. Also, the AUC(0-t) at 24 h in series [16] is 2340 ng·h/mL. In series [19], the half-life is 6.3 h.

One may read the half-life as the time in which the quantity being followed falls by half. As a reminder, the Cmax is the highest concentration seen after dosing. One may read the AUC(0-t) as the area under the concentration-time curve up to a stated or last time point. A higher AUC(0-t) goes with more exposure.
